From patent US20250360113A1, “ADMINISTRATION OF DHB TO INCREASE BENEFIT OF LOSING WEIGHT OF INTERMITTENT FASTING” (NANJING NUTRABUILDING BIO-TECH CO., LTD., priority 2023, published 2025)
“Also recorded” adds a separate entry of the source.

Key:
[1] = mice, including mice lacking the intestinal bacteria needed to break down BBR; cited from earlier work
[2] = Normal-diet mice given DHB with or without EODF, tested by the same method; assay type: in vivo, C57BL/6 male mice; conditions: normal mice on normal diet
Description: 40 C57BL/6 male mice aged about 8 weeks, are randomly assigned to four study groups (GA1, GA2, GA3, GA4) of ten mice each (one cage, […]). Mice were maintained in a pathogen free condition under a strict 12 h light/dark cycle (0600/1800 h) with 12-15 cycles/hour of air change. Mice were provided with access to respective feed and water ad libitum as per experimental conditions. Mice were housed under controlled laboratory conditions of temperature and humidity at 23±2° C. and 50±10% RH, respectively. Each study group consisted of ten animals, and treatment details of the individual study groups are given below: • Group A1 (GA1, NC): Normal mice, maintained on normal diet (standard chow, 12% calories from fat; 23% calories from protein and 65% calories from carbohydrates) for 8 weeks, receiving neither EODF nor DHB treatment. • Group A2 (GA2): Normal mice, maintained on normal diet for 8 weeks, receiving only EODF and no DHB treatment. • Group A3 (GA3): Normal mice, maintained on normal diet for 8 weeks, receiving only DHB treatment and no EODF. • Group A4(GA4): Normal mice, maintained on normal diet for 8 weeks, receiving DHB treatment and EODF combination. Test according to the above method. […] This effect persists for as long as the test protocol is continued.

[3] = Serum insulin and leptin by ELISA at end of treatment; assay type: in vivo, C57BL/6 male mice; conditions: HFD obese mice
Description: 50 C57BL/6 male mice aged about 8 weeks, are randomly assigned to five study groups (GA, GB1, GB2, GB3, GB4) of ten mice each (one cage, n=5 per condition). Mice were maintained in a pathogen free condition under a strict 12 h light/dark cycle (0600/1800 h) with 12-15 cycles/hour of air change. Mice were provided with access to respective feed and water ad libitum as per experimental conditions. Mice were housed under controlled laboratory conditions of temperature and humidity at 23±2° C. and 50±10% RH, respectively. Each study group consisted of ten animals, and treatment details of the individual study groups are given below: • Group A (GA, NC): Normal mice, maintained on normal diet (standard chow, 12% calories from fat; 23% calories from protein and 65% calories from carbohydrates) for 8 weeks, receiving neither EODF nor DHB treatment. • Group B1 (GB1): Obese mice, maintained on high fat diet (HFD, 60% calories from fat, 20% calories from protein, 20% calories from carbohydrate) for 8 weeks, receiving neither EODF nor DHB treatment. • Group B2 (GB2): Obese mice, maintained on HFD for 8 weeks, receiving only EODF and no DHB treatment. • Group B3 (GB3): Obese mice, maintained on HFD for 8 weeks, receiving only DHB treatment and no EODF. • Group B4 (GB4): Obese mice, maintained on HFD for 8 weeks, receiving DHB treatment and EODF combination. DHB was administered daily via intragastric injection (i.g.) according to a level of 70 mg/kg body weight. Mice not receiving DHB were given orally with ultrapure water. Serum levels of insulin and leptin were determined at the end of the treatment period by standard ELISA methods. Since one key feature of obesity is the development of insulin and leptin resistance resulting in an elevation of the circulating levels of these two hormones as a consequence of compensatory physiological responses to insulin and leptin insensitivity, thus leptin is one of the major adipocytokines associated with maintaining glucose homeostasis.

[4] = Body weight and body composition of HFD obese mice given DHB with or without EODF; assay type: in vivo, C57BL/6 male mice
Description: 50 C57BL/6 male mice aged about 8 weeks, are randomly assigned to five study groups (GA, GB1, GB2, GB3, GB4) of ten mice each (one cage, n=5 per condition). Mice were maintained in a pathogen free condition under a strict 12 h light/dark cycle (0600/1800 h) with 12-15 cycles/hour of air change. Mice were provided with access to respective feed and water ad libitum as per experimental conditions. Mice were housed under controlled laboratory conditions of temperature and humidity at 23±2° C. and 50±10% RH, respectively.
Each study group consisted of ten animals, and treatment details of the individual study groups are given below: • Group A (GA, NC): Normal mice, maintained on normal diet (standard chow, 12% calories from fat; 23% calories from protein and 65% calories from carbohydrates) for 8 weeks, receiving neither EODF nor DHB treatment. • Group B1 (GB1): Obese mice, maintained on high fat diet (HFD, 60% calories from fat, 20% calories from protein, 20% calories from carbohydrate) for 8 weeks, receiving neither EODF nor DHB treatment. • Group B2 (GB2): Obese mice, maintained on HFD for 8 weeks, receiving only EODF and no DHB treatment. • Group B3 (GB3): Obese mice, maintained on HFD for 8 weeks, receiving only DHB treatment and no EODF. • Group B4 (GB4): Obese mice, maintained on HFD for 8 weeks, receiving DHB treatment and EODF combination.
The total experimental time is 19 weeks, including two periods: an elevent-week induction period and a subsequent eight-week treatment period.
HFD fed male mice in groups at 8 weeks of age were randomly assigned into either ad libitum, or EODF groups on a per cage basis. All cage bedding was changed to paper bedding for the duration of the model. Mice in the EODF group had total deprivation of food and ad libitum access to water from 1200 h-1200 h on alternate days with ad libitum food and water access. EODF cages were changed upon induction of fasting. Ad libitum control mice cages were changed every other day with fresh food provided.
DHB was administered daily via intragastric injection (i.g.) according to a level of 70 mg/kg body weight. Mice not receiving DHB were given orally with ultrapure water.
Each mouse's body weight is measured weekly during the study at 1200 h. Each animal's body composition was measured and recorded before the treatment and weekly during the study at 1200 h by Nuclear Magnetic Resonance Body Composition Analyzer in accordance with manufacturer's instruction. After sacrifice, subcutaneous fat and para-renal fat were weighed.

[5] = DHB + EODF combination vs EODF only
[6] = DHB 70 mg/kg i.g. daily + EODF combination vs EODF only

## COc1ccc2c(c1OC)CN1CCc3cc4c(cc3C1=C2)OCO4 [DHB, Dihydroberberine]
[1]
  absorption compared with BBR: better absorbed
[2]; [5]
  effects (same tests as in obese mice): greater effects
[2]; DHB vs no DHB with and without EODF
  effectiveness (same tests as in obese mice): greater effectiveness
[3]; DHB 70 mg/kg i.g. daily with or without EODF vs no DHB, FIG. 9
  insulin resistance (serum levels of insulin): improved
[3]; DHB 70 mg/kg i.g. daily with or without EODF vs no DHB, FIG. 10
  leptin resistance (serum levels of leptin): improved
[3]; [5]
  improving insulin resistance: greater effects
  improving leptin resistance: greater effects
[4]; [6]
  body fat: reducing
  body weight: reducing; also recorded: greater effects on weight loss
  para-renal fat: reducing
  subcutaneous fat: reducing
[4]; DHB 70 mg/kg i.g. daily, 8 weeks, with or without EODF, vs same HFD with and without EODF, no DHB, FIGS. 1-4
  body composition: greater reduction in body composition
